Consider 17 compounds from US6403626B1, “Benzimidazole derivatives” (Synaptic Pharmaceutical Corporation, priority 1994, dated 2002).

Assay [1] has as its target T1, α2B Human Adrenergic Receptor (Homo sapiens, UniProt P18089).
T1 construct: expressed in transfected cells; host or cells: Y-1 cells
T1 sequence (P18089 1-450): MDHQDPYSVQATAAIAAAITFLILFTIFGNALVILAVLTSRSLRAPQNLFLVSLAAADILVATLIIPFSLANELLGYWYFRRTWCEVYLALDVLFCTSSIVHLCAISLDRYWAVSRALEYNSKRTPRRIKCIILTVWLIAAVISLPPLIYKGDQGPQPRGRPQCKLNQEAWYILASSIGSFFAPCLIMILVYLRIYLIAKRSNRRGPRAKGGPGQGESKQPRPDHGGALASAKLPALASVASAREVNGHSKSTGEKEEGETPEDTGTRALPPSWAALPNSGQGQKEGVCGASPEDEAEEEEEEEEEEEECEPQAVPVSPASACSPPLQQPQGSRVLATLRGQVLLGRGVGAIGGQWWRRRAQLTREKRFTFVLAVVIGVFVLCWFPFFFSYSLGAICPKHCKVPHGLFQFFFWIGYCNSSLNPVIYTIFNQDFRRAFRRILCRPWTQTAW
The assay is described as follows: Equilibrium competition binding, [3H] rauwolscine, membranes of transfected Y-1 cells.

Assay [2] concerns the target T2, α1B Human Adrenergic Receptor (Homo sapiens, UniProt P35368).
T2 construct: The entire coding region of α1B(1563 bp); expressed in transfected cells; host or cells: LM(tk-) cells
T2 sequence (P35368 1-520): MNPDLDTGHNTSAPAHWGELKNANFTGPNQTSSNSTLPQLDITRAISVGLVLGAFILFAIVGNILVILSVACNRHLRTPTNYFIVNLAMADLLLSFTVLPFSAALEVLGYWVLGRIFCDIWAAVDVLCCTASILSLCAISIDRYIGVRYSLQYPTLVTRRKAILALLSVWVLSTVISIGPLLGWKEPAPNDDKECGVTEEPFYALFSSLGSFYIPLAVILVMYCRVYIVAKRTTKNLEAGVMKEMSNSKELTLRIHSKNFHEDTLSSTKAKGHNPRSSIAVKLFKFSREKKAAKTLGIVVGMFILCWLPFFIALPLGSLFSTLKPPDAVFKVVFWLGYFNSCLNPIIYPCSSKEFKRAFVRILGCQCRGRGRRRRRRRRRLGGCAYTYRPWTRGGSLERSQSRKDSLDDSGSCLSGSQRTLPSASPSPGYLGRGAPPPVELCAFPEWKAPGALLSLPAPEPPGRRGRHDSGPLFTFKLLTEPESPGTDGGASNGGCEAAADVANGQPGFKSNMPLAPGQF
The assay is described as follows: Equilibrium competition binding, [3H] prazosin, membranes of transfected LM(tk-) cells.

For assay [3], the target named is T1, α2B Human Adrenergic Receptor. The assay is classed as cell-based.
In assay [4] the target is T3, α2C Human Adrenergic Receptor (Homo sapiens, UniProt P18825).
T3 sequence (P18825 1-462): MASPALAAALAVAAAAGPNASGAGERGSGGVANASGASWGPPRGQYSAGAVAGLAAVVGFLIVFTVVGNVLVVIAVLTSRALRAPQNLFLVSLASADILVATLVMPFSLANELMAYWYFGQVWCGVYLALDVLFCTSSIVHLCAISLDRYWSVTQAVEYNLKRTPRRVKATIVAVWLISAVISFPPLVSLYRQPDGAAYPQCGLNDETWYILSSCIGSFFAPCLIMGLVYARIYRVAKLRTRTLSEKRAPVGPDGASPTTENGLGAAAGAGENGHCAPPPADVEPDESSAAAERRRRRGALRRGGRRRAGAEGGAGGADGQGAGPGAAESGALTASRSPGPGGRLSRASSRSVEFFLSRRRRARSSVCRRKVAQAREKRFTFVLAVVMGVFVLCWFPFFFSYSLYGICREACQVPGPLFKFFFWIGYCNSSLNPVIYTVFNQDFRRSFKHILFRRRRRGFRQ
The assay is described as follows: Equilibrium competition binding, [3H] rauwolscine, membranes of transfected LM(tk-) cells.

Assay [5] has as its target T3, α2C Human Adrenergic Receptor. In kind it is cell-based. As to conditions: for I.A Alpha-2 C: functional cAMP assay. Set-up: The entire coding region of α2C (1383 bp), including 2 bp of 5′ UT and 400 bp of 3′ UT; expressed in transfected cells; host or cells: LM(tk-) cells.
Where [6] appears, read: cloned human receptor, [3H] prazosin, read-out: pKi Alpha-1 B (converted).
The mark [7] stands for this setting: cloned human receptor, [3H] rauwolscine, read-out: pKi Alpha-2 B (converted).
[8] abbreviates: inhibition of forskolin-stimulated cAMP, NA: Not Active, read-out: pEC50 Alpha-2 B (converted).
[9] abbreviates: cloned human receptor, [3H] rauwolscine.
Where [10] appears, read: inhibition of forskolin-stimulated cAMP, NA: Not Active.
The mark [11] stands for this setting: inhibition of forskolin-stimulated cAMP, NA: Not Active, read-out: pEC50 Alpha-2 C (converted).

Like-named read-outs stand apart in the source and are kept apart here.

`Cn1cnc2c(Br)c(NC3=NCCN3)ccc21` [Example 10, 1-Methyl-4-bromo-5-(2-imidazolin-2-ylamino)Benzimidazole]: the Ki in assay [1] was 28.2 nM; in assay [2] (setting [6]), 3800 nM; in assay [4], 15.5 nM. For the same compound, the EC50 is 102 nM in assay [3] and 2.34 nM in assay [5]. Moreover, in assay [3], the “I.A Alpha-2 B” value stood at 1.00. Moreover, the “I.A Alpha-2 C” value in assay [5] is on record as 1.00.

Take `CCCCc1c(NC2=NCCN2)ccc2nc[nH]c12` [Example 8, 4-n-Butyl-5-(2-imidazolin-2-ylamino)Benzimidazole]: the results for the Ki in assay [1] (setting [7]) and in assay [2] (setting [6]) were 50.1 nM and 2630 nM, respectively. Also, in assay [3] (functional cAMP assay), the “I.A Alpha-2 B” value is recorded as 0.80. In addition, in assay [3] (setting [8]), the EC50 was 234 nM. Also, the “I.A Alpha-2 C” value in assay [5] is 1.00.

Turning to `Clc1c(NC2=NCCN2)ccc2nc[nH]c12` [Example 3, 4-Chloro-5-(2-imidazolin-2-ylamino)Benzimidazole], the values for the Ki in assay [1] (setting [7]), in assay [2] (setting [6]) and in assay [4] were 15.5 nM, 8130 nM and 100 nM, respectively. Also, the “I.A Alpha-2 B” value in assay [3] (functional cAMP assay) stood at 1.00. The EC50 in assay [3] (setting [8]) was 12.6 nM; in assay [5], 0.562 nM. Further, the “I.A Alpha-2 C” value in assay [5] was 1.00.

For `CCCc1c(NC2=NCCN2)ccc2nc[nH]c12` [Example 7, 4-n-Propyl-5-(2-imidazolin-2-ylamino)Benzimidazole], the Ki in assay [2] (setting [6]) is 1230 nM. In assay [3], the EC50 is 200 nM and the “I.A Alpha-2 B” value came out at 1.00. Besides, the Ki in assay [4] was 41.7 nM. Besides, in assay [5], the EC50 was 6.17 nM and the “I.A Alpha-2 C” value stood at 1.00.

For the compound `Ic1c(NC2=NCCN2)ccc2nc[nH]c12` [Example 5, 4-Iodo-5-(2-imidazolin-2-ylamino)Benzimidazole], the Ki in assay [1] was 30.9 nM; in assay [2] (setting [6]), 1820 nM; in assay [4], 24 nM. Also, the EC50 in assay [3] was 46.8 nM; in assay [5] it was 1.35 nM. The “I.A Alpha-2 B” value in assay [3] is reported as 1.00. Besides, the “I.A Alpha-2 C” value in assay [5] came to 1.00.

Regarding `Cc1nc2ccc(NC3=NCCN3)c(Br)c2[nH]1` [Example 42, 2-Methyl-4-bromo-5-(2-imidazolin-2-ylamino)Benzimidazole], the Ki is 23.4 nM in assay [1], 8510 nM in assay [2] (setting [6]) and 214 nM in assay [4]. The same compound had an EC50 in assay [3] of 97.7 nM. The “I.A Alpha-2 B” value in assay [3] worked out at 0.60.

Compound `CC(C)(C)c1nc2ccc(NC3=NCCN3)c(Br)c2[nH]1` [Example 45, 2-tert-Butyl-4-bromo-5-(2-imidazolin-2-ylamino)Benzimidazole] had a Ki in assay [1] of 83.2 nM. The Ki in assay [2] (setting [6]) was 11500 nM. In addition, in assay [3], the EC50 is 851 nM and the “I.A Alpha-2 B” value came to 0.70. In assay [5], the “I.A Alpha-2 C” value is 0.60.

`COc1ccc(Cn2cnc3c(Br)c(NC4=NCCN4)ccc32)cc1` [Example 36, 1-(4-Methoxybenzyl)-4-bromo-5-(2-imidazolin-2-ylamino)Benzimidazole]: the Ki in assay [1] (setting [7]) was 107 nM; in assay [2], 11000 nM; in assay [4] it was 166 nM. Besides, in assay [3] (functional cAMP assay), the “I.A Alpha-2 B” value came to 0.60. For the same compound, the EC50 in assay [3] (setting [8]) is 282 nM.

Turning to `Cn1cnc2ccc(NC3=NCCN3)c(Br)c21` [Example 12, 3-Methyl-4-bromo-5-(imidazolin-2-ylamino)Benzimidazole], in assay [1] (setting [9]), the “pKi Alpha-2 B” value is given as 7.84. Further, the “pKi Alpha-1 B” value in assay [2] (cloned human receptor, [3H] prazosin) is 6.46. In assay [3] (functional cAMP assay), the “I.A Alpha-2 B” value was 1.00. In addition, the “pEC50 Alpha-2 B” value in assay [3] (setting [10]) stood at 7.51. Moreover, the “pKi Alpha-2 C” value in assay [4] (setting [9]) was determined as 7.59. The “I.A Alpha-2 C” value in assay [5] is listed as 1.00. Also, in assay [5] (setting [10]), the “pEC50 Alpha-2 C” value is listed as 7.76.

In turn, `FC(F)(F)c1nc2ccc(NC3=NCCN3)c(Br)c2[nH]1` [Example 46, 2-Trifluoromethyl-4-bromo-5-(2-imidazolin-2-ylamino)Benzimidazole] had a Ki in assay [1] of 105 nM. Also, the Ki in assay [2] (setting [6]) is 28200 nM. In addition, in assay [3], the EC50 is 589 nM and the “I.A Alpha-2 B” value is recorded as 0.80. Besides, in assay [5], the “I.A Alpha-2 C” value is recorded as 0.90.

With `Cn1cnc2cc(NC3=NCCN3)ccc21` [Example 9, 1-Methyl-5-(2-imidazolin-2-ylamino)Benzimidazole], the Ki in assay [1] (setting [7]) was 46.8 nM; in assay [2] (setting [6]), 13500 nM. Further, the “I.A Alpha-2 B” value in assay [3] (functional cAMP assay) is listed as 1.00. The EC50 in assay [3] (setting [8]) was 58.9 nM. In assay [5], the “I.A Alpha-2 C” value amounted to 1.00.

Turning to `Brc1c(NC2=NCCN2)ccc2nc[nH]c12` [Example 2, 4-Bromo-5-(2-imidazolin-2-ylamino)Benzimidazole], the Ki in assay [1] (setting [7]) was 20.4 nM; in assay [2], 5890 nM; in assay [4], 97.7 nM. Besides, the “I.A Alpha-2 B” value in assay [3] (functional cAMP assay) came to 1.00. Also, the figures for the EC50 in assay [3] (setting [8]) and in assay [5] (setting [11]) were 18.6 nM and 117 nM, respectively. The “I.A Alpha-2 C” value in assay [5] is listed as 1.00.

Take `CCc1nc2ccc(NC3=NCCN3)c(Br)c2[nH]1` [Example 43, 2-Ethyl-4-bromo-5-(2-imidazolin-2-ylamino)Benzimidazole]: the Ki in assay [1] was 33.9 nM. Further, the Ki in assay [2] (setting [6]) is 6920 nM. In assay [3], the EC50 was 162 nM and the “I.A Alpha-2 B” value worked out at 0.80. Further, the “I.A Alpha-2 C” value in assay [5] turned out to be 0.90.

Turning to `OCCn1cnc2c(Br)c(NC3=NCCN3)ccc21` [Example 38, 1-(2-Hydroxyethyl)-4-bromo-5-(2-imidazolin-2-ylamino)Benzimidazole], the figures for the Ki in assay [1] (setting [7]), in assay [2] and in assay [4] were 525 nM, 17400 nM and 1290 nM, respectively. Also, the “I.A Alpha-2 B” value in assay [3] (functional cAMP assay) worked out at 0.80. Also, the figures for the EC50 in assay [3] (setting [8]) and in assay [5] (setting [11]) were 158 nM and 363 nM, respectively. Further, the “I.A Alpha-2 C” value in assay [5] was determined as 1.00.

For `Cc1c(N=C2NCCN2)ccc2[nH]cnc12` [Example 4, 4-Methyl-5-(2-imidazolin-2-ylamino)Benzimidazole], the Ki in assay [1] (setting [7]) is 9.12 nM; in assay [2] (setting [6]) it was 2750 nM; in assay [4], 25.7 nM. Also, the values for the EC50 in assay [3] (setting [8]) and in assay [5] (setting [11]) were 9.77 nM and 0.355 nM, respectively.

Regarding `Clc1cc(NC2=NCCN2)cc2[nH]cnc12` [Example 53, 7-Chloro-5-(2-imidazolin-2-ylamino)Benzimidazole], the figures for the Ki in assay [1], in assay [2] (setting [6]) and in assay [4] were 18.2 nM, 1910 nM and 89.1 nM, respectively. The EC50 in assay [3] is 18.2 nM; in assay [5] it was 1.07 nM. Also, in assay [3], the “I.A Alpha-2 B” value is 1.00. Besides, the “I.A Alpha-2 C” value in assay [5] worked out at 1.00.

Turning to `CCCCc1cc(NC2=NCCN2)cc2[nH]cnc12` [Example 56, 7-Butyl-5-(2-imidazolin-2-ylamino)Benzimidazole], the Ki in assay [1] (setting [7]) is 182 nM; in assay [2] (setting [6]) it was 5130 nM. In assay [3] (functional cAMP assay), the “I.A Alpha-2 B” value was 0.30. In addition, the EC50 in assay [3] (setting [8]) was 219 nM. Moreover, the “I.A Alpha-2 C” value in assay [5] is 1.00.
